Assay results reported in paper PMC10254233, “Synthesis and In Vitro Biological Evaluation of p-Carborane-Based Di-tert-butylphenol Analogs” (Molecules, 2023).

System: HCT116 cells
Assay: Acridine orange (AO) staining for autophagy
Assay type: cell-based, human
Details: HCT116, IC50 dose, 72 h
Excerpt: Apostat staining confirmed that apoptosis was in correlation with the activation of caspases (Figure 3C). […] The […] production of reactive oxygen species explains the observed effects of the applied treatments, namely inhibition of proliferation and induction of apoptosis (Figure 3E). It is widely accepted that drug-mediated hyperproduction of reactive oxygen species that are not buffered by cellular anti-oxidative protection is responsible for cell death induction. […] The described feature is acquired during disease progression, and it is tightly connected with abnormal blood supply and a hypoxic microenvironment. Therefore, elimination of these molecules results in a rapid decrease in cell viability. […]
Non-adherent cells were removed two hours after seeding and treatment was applied. Cell viability was determined after 72 h using a crystal violet (CV) assay. […]
and R-830-Cb (50 μM) for 72 h. […] After 15 min incubation at room temperature (RT) protected from light the cells were resuspended in AnnV-binding buffer and analysed using flow cytom-etry. HCT116 cells were incubated with pan-caspase inhibitor Apostat for 30 min at 37 °C to determine whether detected apoptosis was mediated by caspase activation. […]

Q: How did the “autophagy (AO staining)” value turn out when “1-Hydroxy-12-(thiophen-2′-carbonyl)-1,12-dicarba-closo-dodecaborane(12) [Compound R-830-Cb]” was run?
A: intense autophagy
